We go through 16 molecules from patent US20170362228A1, “TETRAHYDRO-PYRIDO[3,4-b]INDOLE ESTROGEN RECEPTOR MODULATORS AND USES THEREOF” (Genentech, Inc., priority 2016, published 2017).

One test has as its system MCF7 cells. Briefly: In vitro cell proliferation assays (Examples 902 and 903), MCF7. The conditions noted are these: read-out: ER-alpha MCF7 HCS (EC50). It counts as cell-based.
Test [1] deals with T1, estrogen receptor alpha (ESR1) (Homo sapiens, UniProt P03372).
T1 construct: endogenous in cells; host or cells: MCF7 breast cancer cells
T1 sequence (P03372 1-595): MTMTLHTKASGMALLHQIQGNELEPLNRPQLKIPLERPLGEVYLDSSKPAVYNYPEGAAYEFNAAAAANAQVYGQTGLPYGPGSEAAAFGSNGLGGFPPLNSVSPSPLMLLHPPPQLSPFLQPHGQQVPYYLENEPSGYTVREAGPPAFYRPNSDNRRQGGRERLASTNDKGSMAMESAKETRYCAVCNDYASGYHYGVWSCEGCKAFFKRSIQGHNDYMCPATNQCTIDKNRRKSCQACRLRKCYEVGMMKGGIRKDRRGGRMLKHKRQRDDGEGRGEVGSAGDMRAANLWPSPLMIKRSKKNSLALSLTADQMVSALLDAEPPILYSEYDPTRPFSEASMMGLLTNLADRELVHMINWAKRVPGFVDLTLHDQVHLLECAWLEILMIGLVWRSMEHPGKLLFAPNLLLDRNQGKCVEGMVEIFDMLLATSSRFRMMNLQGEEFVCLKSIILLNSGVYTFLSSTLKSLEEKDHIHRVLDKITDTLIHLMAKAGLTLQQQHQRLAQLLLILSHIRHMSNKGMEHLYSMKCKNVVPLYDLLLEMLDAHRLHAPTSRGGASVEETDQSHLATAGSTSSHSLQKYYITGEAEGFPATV
Put plainly: Breast Cancer Cell ERa High Content Fluorescence Imaging Degradation Assay (Example 901). The note with it: MCF7 breast cancer cells, 4 hours, plateau of the maximal effect. The class given is cell-based. In outline: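 MCF7 cells in phenol red-free RPMI with 10% charcoal-stripped FBS, exposed to compound at 0.05–835 nM (10-point, 1.8×, duplicate; 0.84% DMSO) for 4 h at 37 °C. Fixed cells immunostained for ESR1 (F10 mAb, Alexa 488) with Hoechst nuclear mask; nuclear ESR1 intensity imaged per cell. DMSO and 5 nM fulvestrant set 0%/100%; EC50 and Sinf by robust fit.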

Setting [2] is: Table 1a, DMSO and Fulvestrant define 0% and 100% changes in ESR1.

Where two headings read alike, the source gives them in different places.

As for `C[C@@H]1Cc2c([nH]c3cccc(F)c23)[C@@H](c2c(F)cc([C@H](O)C3CN(CCCF)C3)cc2F)N1CC(F)(F)CO` [Compound 143, 3-((1R,3R)-1-(2,6-difluoro-4-((R)-(1-(3-fluoropropyl)azetidin-3-yl)(hydroxy)methyl)phenyl)-5-fluoro-3-methyl-3,4-dihydro-1H-pyrido[3,4-b]indol-2(9H)-yl)-2,2-difluoropropan-1-ol], the EC50 – broadly, the concentration at which the effect is half-maximal – with MCF7 cells (Homo sapiens, MCF7, Table 1a) turned out to be 0.035 nM. Also, the “ER-alpha MCF7 HCS (S inf)” value in test [1] (setting [2]) is given as −101%.
Regarding `C[C@@H]1Cc2c([nH]c3cccc(F)c23)[C@@H](c2c(F)cc([C@@H](O)C3CN(CCCF)C3)cc2F)N1CC(F)(F)CO` [Compound 144, 3-((1R,3R)-1-(2,6-difluoro-4-((S)-(1-(3-fluoropropyl)azetidin-3-yl)(hydroxy)methyl)phenyl)-5-fluoro-3-methyl-3,4-dihydro-1H-pyrido[3,4-b]indol-2(9H)-yl)-2,2-difluoropropan-1-ol], in the test with MCF7 cells (Homo sapiens, MCF7, Table 1a), the EC50 came out at 0.028 nM. For the same molecule, the “ER-alpha MCF7 HCS (S inf)” value in test [1] (setting [2]) is −101%.
In the same order, the values of `C[C@@H]1Cc2c([nH]c3ccccc23)[C@@H](c2c(F)cc(C(N)C3CN(CCCF)C3)cc2F)N1CC(F)(F)CO` (stereo partly drawn) [Compound 145, 3-((1R,3R)-1-(4-(amino(1-(3-fluoropropyl)azetidin-3-yl)methyl)-2,6-difluorophenyl)-3-methyl-3,4-dihydro-1H-pyrido[3,4-b]indol-2(9H)-yl)-2,2-difluoropropan-1-ol] are 0.072 nM and −103%.
In the same order, the values of `C[C@@H]1Cc2c([nH]c3ccccc23)[C@@H](c2c(F)cc(C(F)(F)C3CN(CCCF)C3)cc2F)N1CC(C)(C)F` [Compound 146, (1R,3R)-1-(4-(Difluoro(1-(3-fluoropropyl)azetidin-3-yl)methyl)-2,6-difluorophenyl)-2-(2-fluoro-2-methylpropyl)-3-methyl-2,3,4,9-tetrahydro-1H-pyrido[3,4-b]indole] are 0.26 nM and −96.1%.
In the same order, the values of `C[C@@H]1Cc2c([nH]c3ccccc23)[C@@H](c2c(F)cc(C(C#N)C3CN(CCCF)C3)cc2F)N1CC(F)(F)CO` (stereo partly drawn) [Compound 150, 2-(4-((1R,3R)-2-(2,2-difluoro-3-hydroxypropyl)-3-methyl-2,3,4,9-tetrahydro-1H-pyrido[3,4-b]indol-1-yl)-3,5-difluorophenyl)-2-(1-(3-fluoropropyl)azetidin-3-yl)acetonitrile] are 0.054 nM and −94%.
Regarding `C[C@@H]1Cc2c([nH]c3ccccc23)[C@@H](c2c(F)cc(C(O)C3CN(CCC(F)F)C3)cc2F)N1CC(F)(F)CO` (stereo partly drawn) [Compound 153, 3-((1R,3R)-1-(4-((1-(3,3-difluoropropyl)azetidin-3-yl)(hydroxy)methyl)-2,6-difluorophenyl)-3-methyl-3,4-dihydro-1H-pyrido[3,4-b]indol-2(9H)-yl)-2,2-difluoropropan-1-ol], the EC50 with MCF7 cells (Homo sapiens, MCF7, Table 1b) was determined as 0.17 nM. Also, the “ER-alpha MCF7 HCS (S inf)” value in test [1] (Table 1b) was −92%.
The matching figures for `C[C@@H]1Cc2c([nH]c3ccccc23)[C@@H](c2c(F)cc([C@@](C)(O)C3CN(CCCF)C3)cc2F)N1CC(F)(F)CO` [Compound 154, 3-((1R,3R)-1-(2,6-difluoro-4-((S)-1-(1-(3-fluoropropyl)azetidin-3-yl)-1-hydroxyethyl)phenyl)-3-methyl-3,4-dihydro-1H-pyrido[3,4-b]indol-2(9H)-yl)-2,2-difluoropropan-1-ol]: 0.058 nM and −98%.
In the case of `C[C@@H]1Cc2c([nH]c3ccccc23)[C@@H](c2c(F)cc([C@](C)(O)C3CN(CCCF)C3)cc2F)N1CC(F)(F)CO` [Compound 155, 3-((1R,3R)-1-(2,6-difluoro-4-((R)-1-(1-(3-fluoropropyl)azetidin-3-yl)-1-hydroxyethyl)phenyl)-3-methyl-3,4-dihydro-1H-pyrido[3,4-b]indol-2(9H)-yl)-2,2-difluoropropan-1-ol], the EC50 in the test on MCF7 cells (Homo sapiens, MCF7, Table 1b) worked out at 0.74 nM. For the same molecule, the “ER-alpha MCF7 HCS (S inf)” value in test [1] (Table 1b) is recorded as −84%.
The matching figures for `C[C@@H]1Cc2c([nH]c3ccccc23)[C@@H](c2c(F)cc([C@H](F)C3CN(CCCF)C3)cc2F)N1C[C@H](F)CO` [Compound 158, (S)-3-((1R,3R)-1-(2,6-difluoro-4-((R)-fluoro(1-(3-fluoropropyl)azetidin-3-yl)methyl)phenyl)-3-methyl-3,4-dihydro-1H-pyrido[3,4-b]indol-2(9H)-yl)-2-fluoropropan-1-ol]: 0.4 nM and −101%.
The matching figures for `C[C@@H]1Cc2c([nH]c3ccccc23)[C@@H](c2c(F)cc([C@@H](F)C3CN(CCCF)C3)cc2F)N1C[C@H](F)CO` [Compound 159, (S)-3-((1R,3R)-1-(2,6-difluoro-4-((S)-fluoro(1-(3-fluoropropyl)azetidin-3-yl)methyl)phenyl)-3-methyl-3,4-dihydro-1H-pyrido[3,4-b]indol-2(9H)-yl)-2-fluoropropan-1-ol]: 0.081 nM and −99%.
In the case of `C[C@@H]1Cc2c([nH]c3ccccc23)[C@@H](c2c(F)cc([C@H](O)C3CN(CCCF)C3)cc2F)N1C[C@@H](F)CF` [Compound 161], the EC50 in the test with MCF7 cells (Homo sapiens, MCF7, Table 1b) is 0.13 nM. In addition, in test [1] (Table 1b), the “ER-alpha MCF7 HCS (S inf)” value was −97%.
As to `C[C@@H]1Cc2c([nH]c3ccccc23)[C@@H](c2c(F)cc([C@@H](O)C3CN(CCCF)C3)cc2F)N1C[C@H](F)CF` [Compound 162, (S)-(4-((1R,3R)-2-((S)-2,3-difluoropropyl)-3-methyl-2,3,4,9-tetrahydro-1H-pyrido[3,4-b]indol-1-yl)-3,5-difluorophenyl)(1-(3-fluoropropyl)azetidin-3-yl)methanol], the EC50 in the test with MCF7 cells (Table 1b) was determined as 0.07 nM. In addition, the “ER-alpha MCF7 HCS (S inf)” value in test [1] (Table 1b) is −100%.
With `C[C@@H]1Cc2c([nH]c3ccccc23)[C@@H](c2c(F)cc([C@H](O)C3CN(CCCF)C3)cc2F)N1C[C@H](F)CF` [Compound 163], in the test on MCF7 cells (Homo sapiens, MCF7, Table 1b), the EC50 worked out at 0.2 nM. Also, the “ER-alpha MCF7 HCS (S inf)” value in test [1] (Table 1b) was −102%.
For `CO[C@@H](c1cc(F)c([C@@H]2c3[nH]c4ccc(F)cc4c3C[C@@H](C)N2CC(F)(F)CO)c(F)c1)C1CN(CCCF)C1` [Compound 164, 3-((1R,3R)-1-(2,6-difluoro-4-((R)-(1-(3-fluoropropyl)azetidin-3-yl)(methoxy)methyl)phenyl)-6-fluoro-3-methyl-3,4-dihydro-1H-pyrido[3,4-b]indol-2(9H)-yl)-2,2-difluoropropan-1-ol], in the test with MCF7 cells (Homo sapiens, MCF7, Table 1b), the EC50 came to 0.38 nM. Besides, in test [1] (Table 1b), the “ER-alpha MCF7 HCS (S inf)” value was −85%.
In the same order, the values of `CO[C@H](c1cc(F)c([C@@H]2c3[nH]c4ccc(F)cc4c3C[C@@H](C)N2CC(F)(F)CO)c(F)c1)C1CN(CCCF)C1` [Compound 165, 3-((1R,3R)-1-(2,6-difluoro-4-((S)-(1-(3-fluoropropyl)azetidin-3-yl)(methoxy)methyl)phenyl)-6-fluoro-3-methyl-3,4-dihydro-1H-pyrido[3,4-b]indol-2(9H)-yl)-2,2-difluoropropan-1-ol] are 0.17 nM and −92%.
For the molecule `C[C@@H]1Cc2c([nH]c3ccccc23)[C@@H](c2c(F)cc(CC3CN(CCCF)C3)cc2F)N1C[C@H](F)CO` [Compound 166, (S)-3-((1R,3R)-1-(2,6-difluoro-4-((1-(3-fluoropropyl)azetidin-3-yl)methyl)phenyl)-3-methyl-3,4-dihydro-1H-pyrido[3,4-b]indol-2(9H)-yl)-2-fluoropropan-1-ol], in the test on MCF7 cells (Homo sapiens, MCF7, Table 1b), the EC50 came to 0.04 nM. Further, in test [1] (Table 1b), the “ER-alpha MCF7 HCS (S inf)” value is listed as −99%.
